Several values for one entry are separate records, joined by “and”; a condition that tells them apart may be missing. Equal values may be shown once.
Key:
[1] = test system: rat myocardial ischemia models induced by coronary artery ligation; experiment: Myocardial infarction area of rats after coronary artery ligation (N-BT staining); format: in vivo, Sprague-Dawley male rats; conditions: 5 hours after coronary artery ligation, x ± SD
Text: Sprague-Dawley male rats of clean grade weighting 200-220 g were supplied by the animal experimental center of the Second Military Medical University (license number: SCXK (Shanghai)-2007-0003). • 2.1.2 Experimental groups
Experimental rats were randomly divided into four groups: sham group: n=8, model group: n=9, MLIF low-dose group: n=11, MLIF high-dose group: n=12. The dose of medicine could be administrated according to rat body weight. MLIF low-dose group and MLIF high-dose group were administrated by tail intravenous injection prepared with normal saline as solvent at the dose of 0.15 mg/kg and 0.5 mg/kg, respectively. • 2.1.3 Coronary artery ligation and measurement of myocardial infarction area of rats
The Sprague-Dawley male rats were abdomen anesthetized with 25% urethane (0.4 ml/100 g) and fixated at supine position. The chest was cut open among the fifth rib at left, and then the fourth and fifth ribs were cut off along the left side of sterna at 2 mm. The pericardium was snipped off with heart exposed, and a 0/3 suture line was passed through the left anterior descending coronary artery. The rats were administrated by tail intravenous injection slowly. After 10 minutes, the left anterior descending coronary artery was ligated rapidly and the heart was returned to its chest, removing the air within the thorax by hand, closing the thorax and tightening the purse-string suture rapidly. The entire process of opening and closing chest was performed within 30 seconds. The coronary arteries of rats of sham group were not ligated since the myocardial ischemia would be caused by coronary artery ligation.
The rats were administrated by tail intravenous injection with the dose of 0.15 mg/kg (MLIF low-dose group) and 0.5 mg/kg (MLIF high-dose group) at 15 minutes after coronary artery ligation with the same volume of normal saline administrated in sham group and model group. Each group of animals was executed at 5 hours after coronary artery ligation. The heart was taken out and the heart ventricle muscle was transversely chipped into 5 slices, the cut position of which was parallel to coronary sulcus under the coronary artery ligation line. The five slices of the heart ventricle muscle were stained with Nitroblue tetrazolium (N-BT) for 15 minutes with shaking. The normal heart ventricle muscle was dyed into dark blue while that of the area of myocardial infarction was unstained with normally light yellow. The area of myocardial infarction was isolated by a dissecting microscope and the whole heart weight, the left ventricle weight and the area of myocardial infarction weight were weighed, respectively, the percent (%) of area of myocardial infarction weight to whole heart weight were quantified as an measure on myocardial infarction area ranges. • 2.1.4 Data and statistics analysis
(§1) All experimental data are given as x±SD. Differences between the groups were calculated by analysis of variance (SPSS 10.0).

[2] = test system: acute myocardial ischemia rats (coronary artery ligation); experiment: Serum creatine kinase (CK) and lactic dehydrogenase (LDH) of acute myocardial ischemia rats; format: in vivo, Sprague-Dawley male rats; conditions: blood at 5 hours after coronary artery ligation, x ± SD; for LDH activity in blood serum: P < 0.01 vs model group; for CK activity in blood serum: P < 0.05 vs model group
Text: Sprague-Dawley male rats of clean grade weighting 200-220 g were supplied by the animal experimental center of the Second Military Medical University (license number: SCXK (Shanghai)-2007-0003). • 2.2.2 Experimental groups
Experimental rats were randomly divided into four groups: sham group: n=7, model group: n=8, MLIF low-dose group: n=8, MLIF high-dose group: n=9. The dose of medicine could be administrated according to rat body weight. MLIF low-dose group and MLIF high-dose group were administrated by tail intravenous injection prepared with normal saline as solvent at the dose of 0.15 mg/kg and 0.5 mg/kg, respectively. • 2.2.3 Coronary artery ligation and determination of CK and LDH in blood serum
Coronary artery ligations of rats were carried out as described previously. 3m1 blood sample of each animal was taken from femoral artery at 5 hours after coronary artery ligation and the blood serum was collected according to the method of convengtional centrifugalization. The creatine kinase (CK) and lactic dehydrogenase (LDH) activities in blood serum were measured by semi-automatic biochemical analyzer. • 2.2.4 Data and statistics analysis
as §1

[3] = MLIF high-dose group 0.5 mg/kg tail i.v.
[4] = MLIF high-dose group 0.5 mg/kg tail i.v., P < 0.01 vs model group
[5] = MLIF low-dose group 0.15 mg/kg tail i.v.
[6] = MLIF low-dose group 0.15 mg/kg tail i.v., P < 0.05 vs model group

Q: What does the source list for Met-Gln-Cys-Asn-Ser (MQCNS) [MLIF]?
A: area of myocardial infarction weight [1, 3]: 158 ± 22.4^ΔΔ mg; area of myocardial infarction/ left ventricle [1, 4]: 30±3.7% and 30 ± 3.7^ΔΔ, ** %; area of myocardial infarction/ whole heart [1, 4]: 20±2.7% and 20 ± 2.7^ΔΔ, ** %; area of myocardial infarction weight [1, 5]: 187 ± 22.8^ΔΔ mg; area of myocardial infarction/ left ventricle [1, 6]: 33±3.2% and 33 ± 3.2^ΔΔ, * %; area of myocardial infarction/ whole heart [1, 6]: 22±1.9% and 22 ± 1.9^ΔΔ, * %; LDH activity in blood serum [2, 3]: 3642±817 IU/L and 3642 ± 817^ΔΔ, ** IU/L; CK activity in blood serum [2, 3]: 5244±1787.8 IU/L and 5244 ± 1787.8^ΔΔ, * IU/L; LDH activity in blood serum [2, 5]: 3156±864.1 IU/L and 3156 ± 864.1^ΔΔ, ** IU/L; CK activity in blood serum [2, 5]: 5258±2114.3 IU/L and 5258 ± 2114.3^ΔΔ, * IU/L

— patent US20130102535A1, “Method for Preventing Myocardial Ischemia” (Shanghai Bajiayi Pharmaceutical Science and Technology Co. …, priority 2009, published 2013)
